Measured values published in patent publication US20210386792A1, “A METHOD FOR INCREASING POPULATION OF SPERMATOGONIAL STEM CELLS” (priority 2018, published 2021).

Legend:
[1] = test system: DS-iPS EC; test: GDNF ELISA in conditioned media from Down syndrome iPS-derived ECs; type: cell-based, human; conditions: 2 ng/ml FGF-2
Description: Testis, lung, or liver ECs were plated (10,000 cells ml^−1) on 12 well dishes coated with 0.1% gelatin and cultured for 24 hours. Conditioned media was harvested at 24 and 48 hours after FGF-2 (2 ng ml^−1, 20 ng ml^−1 and 50 ng ml^−1) treatment and analyzed by ELISA for GDNF (Promega GDNF Emax immunoassay system, #G7621) following the manufacturer's instruction. Statistics was analyzed using Graph Pad Prism. For quantification of Gdnf mRNA, total RNA was isolated from the cells using Direct-zol RNA MiniPrep (Zymo Research) and reverse transcribed using High Capacity cDNA Reverse Transcription Kit (Appliedbiosystems), according to the manufacturer's instructions. All gene expression levels were normalized to GAPDH mRNA levels.
To generate iPSC lines, either human fibroblasts/stromal cells were transduced with pMXs-based retroviral supernatant with human OCT4, SOX2, KLF4, or MYC as described^30, or mononuclear cells were infected with pHage2-CMV-RTTA-W and pHage-Tet-hSTEMMCA-loxP virus as described^31. All cells were culture on 0.1% gelatin-coated dishes in human endothelial cell medium (Lonza; EGM®-MV Bulletkit) with 50 ng ml^−1 additional VEGF. 500,000 disaggregated single embryonic bodies from human iPSCs were cultured for 48 hours. Non-adherent cells were gently removed and adherent cells were cultured for 1-2 passages. […]

[2] = test system: EGR-1; test: Western blot of EGR-1 expression in LuECs; type: cell-based, mouse; conditions: LuEC
Source text: FIG. 5. GDNF expression in TECs is regulated by CaN-NFAT signaling. a. Immunouorescence images of testis sections immunostained with the stem cell markers DDX4 and Oct4 and DAPI to stain DNA. Testes were harvested from 1-week-old or 4-week-old Euploid or Ts65Dn mice. Quantication of DDX4+ and Oct4+ cells relative to DAPI per high-powered eld (HPF) is shown on the right, ***P<0.0001. Bar=50 μm. Two-way ANOVA test. b. […] Values are mean±s.e.m. n=4. c. Quantication of GDNF levels by ELISA in conditioned media from murine TECs, LuEC and LiEC after 2 ngml-1 FGF-2 treatment in the presence or absence of CsA. Values are mean±s.e.m., n=4. d. H&E-stained cross-sections from testes of age-matched Euploid, Ts65Dn or Ts65Dn mice 5 weeks after implantation with GFP+ TECs isolated from syngeneic wild-type mice (Ts65Dn+GFP+ TECs). Red dotted line encircles mature sperm (yellow arrow) in the lumen of the seminiferous tubules. Immunouorescence images with GFP and DAPI to stain DNA of testis sections from Ts65Dn+GFP+TECs mice. e. Western blot analysis of EGR-1 protein expression in TECs and LuECs untreated or after FGF-2 treatment, expression of constitutively active NFATc1 (caNFATc1) or an empty vector control. Actin was probed as a loading control. f. Quantication of nuclear translocation of EGR1 and NFATc1 in TECs after treatment with conditioned media (CM), 2 ng ml-1 FGF-2±CsA. Values are mean±s.e.m. g. […]

Substance: fibroblast growth factor-2 [FGF-2]
- GDNF production after FGF2 treatment [1]: relatively modest induction of GDNF
- EGR-1 expression after FGF-2 treatment [2]: not
